# Data published in PubChem BioAssay AID463074 (Broad Institute, 2010).
# Calls of active or inactive are those of the source.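 The calls were made as follows: active = AC50 no more than tenfold above the top dose tested, or full inhibition at every dose with a flat fit (cut at about 19 µM in these data); inconclusive = flat curve fit with inhibition between 30% and 70%, or poor fit; inactive = AC50 more than tenfold above the top dose tested.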
# Tested on: HMLE_sh_eGFP viability, CellTiter-Glo luminescence, 72 h
# Test: cytotoxicity in HMLE control line with eGFP shRNA, dose response, counter-screen for HMLE_sh_ECad selective toxicity project, cell-based, HMLE_sh_eGFP, luminescence (AID 463074);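 also: counterscreen control line to flag general toxicity for the HMLE_sh_ECad screen; potency for loss of viability as luminescence drops below DMSO wells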
row,SMILES,AC50
1,CCN(CC)CCCNC(=O)c1cc(-c2ccccc2)c(N2CCCCC2)s1,3.29 µM
2,Cc1ccc(S(=O)(=O)Nc2ccc3c(c2)CC(=O)N([C@H](C)CO)C[C@@H](C)[C@H](CN(C)Cc2ccc(-c4ccccc4)cc2)O3)cc1,2.29 µM
3,COc1cc(OC)cc(-c2sc3ccc(OC)cc3c2-c2ccc3cc[nH]c3c2)c1,3.34 µM
4,Cc1cc(/C=N/n2c(COc3ccccc3)nc3ccccc3c2=O)c(O)c([N+](=O)[O-])c1,> 10 µM (inactive)
5,CCN1CCN(Cc2ccc(NC(=O)c3ccc(C)c(NC(=O)c4cc(-c5ccc(Br)cc5)n[nH]4)c3)cc2C(F)(F)F)CC1,11.6 µM
6,CN1CCN(c2ccc([N+](=O)[O-])c(NCc3ccco3)c2)CC1,12.9 µM
7,CCCCC(CC)CN1C(=O)/C(=C/c2ccncc2)SC1=S (stereo unspecified),6.81 µM
8,CCCOc1c(Cl)cc(C(=O)Nc2ccc3c(c2)OCO3)cc1OCC,5.39 µM
9,O=C(Nc1ccc(Br)cn1)c1cccc(-c2cc3ccccc3oc2=O)c1,12.3 µM
10,NS(=O)(=O)c1ccc(N=Cc2c(O)n(C3CCCCC3)c(=O)n(C3CCCCC3)c2=O)cc1,3.81 µM
11,CCOC(=O)c1nn(-c2ccc(F)cc2)c(-c2ccccc2)c1C(=O)c1ccccc1,11.8 µM
12,Cc1ccc(Nc2cc(C)nc(NCc3ccccc3)n2)cc1,4.86 µM
13,CCCCn1c(C2CCCCC2)nc2cc3[nH]c(=O)c(C(C)C)nc3cc21,1.52 µM
14,Oc1ccc(N=Nc2nc(-c3ccccc3)c(-c3ccccc3)[nH]2)cc1,4.53 µM
15,CCc1c(C)sc(NC(=O)/C=C/c2ccc3c(c2)OCO3)c1C(=O)OC,0.776 µM
16,O=C(Nc1nc(-c2cccc3ccccc23)cs1)c1ccc2c(c1)S(=O)(=O)c1ccccc1C2=O,11.3 µM
17,C=C1CCc2c([nH]c3ccc(OCC(C)C)cc23)C1=O,5.57 µM
18,COc1ccc(Br)cc1C(=O)NC(=S)Nc1cc(-c2nc3ccccc3[nH]2)ccc1C,> 19.5 µM (inactive)
19,Nc1ccc(N=Nc2ccccc2)c2ccccc12,12.6 µM
20,Cc1ccc(-c2nnc(Sc3nc4ccccc4o3)c3ccccc23)cc1,6.74 µM
21,COc1cc(/C=C/C(=O)c2ccc(NS(=O)(=O)c3ccc(C)cc3)cc2)cc(OC)c1O,4.11 µM

row,SMILES,AC50
1,CN1CCN(S(=O)(=O)c2cccc(C(=O)Nc3cc(C(F)(F)F)ccc3N3CCCCC3)c2)CC1,5.34 µM
2,CCCCNc1c(-c2ccc(SC(C)CC)cc2)nc2ccccn12 (stereo unspecified),4.06 µM
3,Cc1c(Cl)c([N+](=O)[O-])nn1Cc1ccc(C(=O)N/N=C\c2cc(Cl)ccc2O)o1,4.54 µM
4,COc1ccc(-c2sc3ccccc3c2/C=C/c2ccc(N)cc2)cc1,15.8 µM
5,O=C(NC(=S)Nc1cccc(Cl)c1N1CCCCC1)c1ccco1,3.81 µM
6,Cc1cc2oc(=O)c(CC(=O)NCCCN(C)C)c(C)c2c2occ(C(C)(C)C)c12,2.85 µM
7,CCOC(=O)C(=Cc1ccc(OCc2ccc([N+](=O)[O-])cc2)c(OC)c1)C(=O)OCC,3.03 µM
8,FC(F)(F)c1cc(CCN2CCNC[C@@H]2Cc2ccccc2)cc(C(F)(F)F)c1,13.7 µM
9,CN(/N=C/c1cc(Cl)cc(Cl)c1O)C(=S)NC(C)(C)C,2.75 µM
10,Cn1nnnc1Sc1ncnc2scc(-c3cccc(Br)c3)c12,3.14 µM
11,CC(C)(C)c1nc(N2CCN(C(=O)c3ccco3)CC2)c2nnn(Cc3ccccc3Cl)c2n1,8.78 µM
12,Cc1cc2nnc(SCC(=O)NCc3ccco3)n2c2ccccc12,4.5 µM
13,CCOc1ccccc1N(C(=O)Nc1ccc(Cl)cc1)C1=NCCS1,> 19.5 µM (inactive)
14,O=C(/C=C/c1ccc(Cl)c([N+](=O)[O-])c1)c1ccc(O)cc1,3.72 µM
15,Cc1cccc(NC2=C/C(=N/S(=O)(=O)c3cccs3)c3ccccc3C2=O)c1,0.934 µM
16,CCc1c(C2(O)CCCCC2)[nH]c2ccc(C(F)(F)F)cc12,3.56 µM
17,Cn1c(=O)c(C(=O)NNC(=O)c2ccc(Br)cc2)c(O)c2ccccc21,5.69 µM
18,CCC(C)n1ncn(-c2ccc(N3CCN(c4ccc(O)cc4)CC3)cc2)c1=O (stereo unspecified),1.47 µM
19,O=C(Cn1c2ccccc2c(=O)c2ccccc21)N/N=C/c1ccc(N2CCCC2)c([N+](=O)[O-])c1,2.43 µM
20,CC[C@H](CO)Nc1nc(Nc2cccc(Cl)c2)c2ncn(C(C)C)c2n1,6.74 µM
